# Measured values taken from patent US20230278972A1, “SUBSTITUTED HALOALKYL SULFONANILIDE HERBICIDES” (FMC Corporation, priority 2020, published 2023).
# Tests used:
# Format in all cases: in vivo
# [1] = system: barnyardgrass (Echinochloa crus-galli); assay: Test A preemergence, barnyardgrass; settings: Preemergence; for Barnyardgrass plant response rating: 125 g ai/ha, visual injury on 0 to 100 scale (0 no effect, 100 complete control), approximately 10 days; for Plant response rating, Barnyardgrass: 500 g ai/ha, 0 to 100 scale (0 no effect, 100 complete control)
# Summary of the method: (§1)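 Compounds in non-phytotoxic solvent with surfactant. Soil: loam/sand. Preemergence via directed soil spray after seeding; postemergence on seedlings 2–10 cm, one- to two-leaf.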
# kochia (Bassia scoparia) [2] = assay: Test A preemergence, kochia; settings: Preemergence; for Kochia plant response rating: 125 g ai/ha, visual injury on 0 to 100 scale (0 no effect, 100 complete control), approximately 10 days; for Plant response rating, Kochia: 500 g ai/ha, 0 to 100 scale (0 no effect, 100 complete control)
# Summary of the method: as §1
# [3] = system: ragweed (common ragweed, Ambrosia artemisiifolia); assay: Test A preemergence, ragweed; settings: Preemergence; for Ragweed plant response rating: 125 g ai/ha, visual injury on 0 to 100 scale (0 no effect, 100 complete control), approximately 10 days; for Plant response rating, Ragweed: 500 g ai/ha, 0 to 100 scale (0 no effect, 100 complete control)
# Summary of the method: as §1
# [4] = system: Ryegrass, Italian (Italian ryegrass, Lolium multiflorum); assay: Test A preemergence, Ryegrass, Italian; settings: Preemergence; for Ryegrass, Italian plant response rating: 125 g ai/ha, visual injury on 0 to 100 scale (0 no effect, 100 complete control), approximately 10 days; for Plant response rating, Ryegrass, Italian: 500 g ai/ha, 0 to 100 scale (0 no effect, 100 complete control)
# Summary of the method: as §1
# [5] = system: Foxtail, Giant (giant foxtail, Setaria faberi); assay: Test A preemergence, Foxtail, Giant; settings: Preemergence; for Foxtail, Giant plant response rating: 125 g ai/ha, visual injury on 0 to 100 scale (0 no effect, 100 complete control), approximately 10 days; for Plant response rating, Foxtail, Giant: 500 g ai/ha, 0 to 100 scale (0 no effect, 100 complete control)
# Summary of the method: as §1
# [6] = system: pigweed (Amaranthus retroflexus); assay: Test A preemergence, pigweed; settings: for Pigweed plant response rating: 125 g ai/ha, visual injury on 0 to 100 scale (0 no effect, 100 complete control), approximately 10 days; for Plant response rating, Pigweed: 500 g ai/ha, 0 to 100 scale (0 no effect, 100 complete control)
# Summary of the method: (§2)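 After sowing into a sand-amended loam, pots for the preemergence test were treated by spraying directly onto soil. In parallel, seedlings at the one- to two-leaf stage and 2 to 10 cm tall were treated postemergence with the identical surfactant-containing formulation.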
# [7] = system: barnyardgrass (Echinochloa crus-galli); assay: Test A postemergence, barnyardgrass; settings: Postemergence, 0 to 100 scale (0 no effect, 100 complete control); for Plant response rating, Barnyardgrass: 125 g ai/ha, visual injury approx. 10 days; for Barnyardgrass plant response rating: 500 g ai/ha, visual injury vs untreated controls after approx. 10 days
# Summary of the method: as §2
# kochia (Bassia scoparia) [8] = assay: Test A postemergence, kochia; settings: Postemergence, 0 to 100 scale (0 no effect, 100 complete control); for Plant response rating, Kochia: 125 g ai/ha, visual injury approx. 10 days; for Kochia plant response rating: 500 g ai/ha, visual injury vs untreated controls after approx. 10 days
# Summary of the method: as §1
# [9] = system: ragweed (common ragweed, Ambrosia artemisiifolia); assay: Test A postemergence, ragweed; settings: Postemergence, 0 to 100 scale (0 no effect, 100 complete control); for Plant response rating, Ragweed: 125 g ai/ha, visual injury approx. 10 days; for Ragweed plant response rating: 500 g ai/ha, visual injury vs untreated controls after approx. 10 days
# Summary of the method: as §1
# [10] = system: Ryegrass, Italian (Italian ryegrass, Lolium multiflorum); assay: Test A postemergence, Ryegrass, Italian; settings: Postemergence, 0 to 100 scale (0 no effect, 100 complete control); for Plant response rating, Ryegrass, Italian: 125 g ai/ha, visual injury approx. 10 days; for Ryegrass, Italian plant response rating: 500 g ai/ha, visual injury vs untreated controls after approx. 10 days
# Summary of the method: as §1
# [11] = system: Foxtail, Giant (giant foxtail, Setaria faberi); assay: Test A postemergence, Foxtail, Giant; settings: Postemergence, 0 to 100 scale (0 no effect, 100 complete control); for Plant response rating, Foxtail, Giant: 125 g ai/ha, visual injury approx. 10 days; for Foxtail, Giant plant response rating: 500 g ai/ha, visual injury vs untreated controls after approx. 10 days
# Summary of the method: as §1
# [12] = system: pigweed (Amaranthus retroflexus); assay: Test A postemergence, pigweed; settings: Postemergence, 0 to 100 scale (0 no effect, 100 complete control); for Plant response rating, Pigweed: 125 g ai/ha, visual injury approx. 10 days; for Pigweed plant response rating: 500 g ai/ha, visual injury vs untreated controls after approx. 10 days
# Summary of the method: as §1
# [13] = system: wheat (Triticum aestivum); assay: Test A postemergence, wheat; settings: Postemergence, 0 to 100 scale (0 no effect, 100 complete control); for Plant response rating, Wheat: 125 g ai/ha, visual injury approx. 10 days; for Wheat plant response rating: 500 g ai/ha, visual injury vs untreated controls after approx. 10 days
# Summary of the method: as §2
# corn (Zea mays) = assay: Test A postemergence, corn; settings: Postemergence, 0 to 100 scale (0 no effect, 100 complete control); for Plant response rating, Corn: 125 g ai/ha, visual injury approx. 10 days; for Corn plant response rating: 500 g ai/ha, visual injury vs untreated controls after approx. 10 days
# Summary of the method: as §1
# [14] = system: blackgrass (Alopecurus myosuroides); assay: Test A postemergence, blackgrass; settings: Postemergence, 0 to 100 scale (0 no effect, 100 complete control); for Plant response rating, Blackgrass: 125 g ai/ha, visual injury approx. 10 days; for Blackgrass plant response rating: 500 g ai/ha, visual injury vs untreated controls after approx. 10 days
# Summary of the method: as §1
# [15] = system: galium (catchweed bedstraw, Galium aparine); assay: Test A postemergence, galium; settings: Postemergence, 0 to 100 scale (0 no effect, 100 complete control); for Plant response rating, Galium: 125 g ai/ha, visual injury approx. 10 days; for Galium plant response rating: 500 g ai/ha, visual injury vs untreated controls after approx. 10 days
# Summary of the method: as §2
Structure (SMILES),Barnyardgrass plant response rating [1],"Plant response rating, Barnyardgrass [1]",Kochia plant response rating (kochia (Bassia scoparia) [2]),"Plant response rating, Kochia (kochia (Bassia scoparia) [2])",Ragweed plant response rating [3],"Plant response rating, Ragweed [3]","Ryegrass, Italian plant response rating [4]","Plant response rating, Ryegrass, Italian [4]","Foxtail, Giant plant response rating [5]","Plant response rating, Foxtail, Giant [5]",Pigweed plant response rating [6],"Plant response rating, Pigweed [6]","Plant response rating, Barnyardgrass [7]",Barnyardgrass plant response rating [7],"Plant response rating, Kochia (kochia (Bassia scoparia) [8])",Kochia plant response rating (kochia (Bassia scoparia) [8]),"Plant response rating, Ragweed [9]",Ragweed plant response rating [9],"Plant response rating, Ryegrass, Italian [10]","Ryegrass, Italian plant response rating [10]",other results
Cc1cc(F)c(-c2ccnn(C)c2=O)cc1NS(=O)(=O)C(F)(F)F [Compound 63],70,90,40,90,30,80,90,100,90,100,70,90,10,90,70,90,10,60,30,70,"Plant response rating, Foxtail, Giant [11]: 70; Foxtail, Giant plant response rating [11]: 90; Plant response rating, Pigweed [12]: 30; Pigweed plant response rating [12]: 80; Plant response rating, Wheat [13]: 0; Wheat plant response rating [13]: 80; Plant response rating, Corn (corn (Zea mays)): 0; Corn plant response rating (corn (Zea mays)): 50; Plant response rating, Blackgrass [14]: 0; Blackgrass plant response rating [14]: 40; Plant response rating, Galium [15]: 90; Galium plant response rating [15]: 90"
COc1c(Cl)nn(C)c(=O)c1-c1cc(NS(=O)(=O)C(F)(F)F)c(C)cc1C [Compound 64],50,90,40,90,0,40,70,100,90,90,40,50,20,20,20,60,0,0,40,80,"Plant response rating, Foxtail, Giant [11]: 0; Foxtail, Giant plant response rating [11]: 60; Plant response rating, Pigweed [12]: 20; Pigweed plant response rating [12]: 30; Plant response rating, Wheat [13]: 40; Wheat plant response rating [13]: 60; Plant response rating, Corn (corn (Zea mays)): 0; Corn plant response rating (corn (Zea mays)): 0; Plant response rating, Blackgrass [14]: 0; Blackgrass plant response rating [14]: 30; Plant response rating, Galium [15]: 0; Galium plant response rating [15]: 30"
COc1cnn(C)c(=O)c1-c1cc(NS(=O)(=O)C(F)(F)F)c(C)cc1C [Compound 65],0,90,0,60,0,0,30,60,80,100,0,30,0,70,0,0,0,0,0,0,"Plant response rating, Foxtail, Giant [11]: 0; Foxtail, Giant plant response rating [11]: 40; Plant response rating, Pigweed [12]: 0; Pigweed plant response rating [12]: 0; Plant response rating, Wheat [13]: 0; Wheat plant response rating [13]: 50; Plant response rating, Corn (corn (Zea mays)): 0; Corn plant response rating (corn (Zea mays)): 0; Plant response rating, Blackgrass [14]: 0; Blackgrass plant response rating [14]: 0; Plant response rating, Galium [15]: 0; Galium plant response rating [15]: 30"
Cc1ccc(-c2ccnn(C)c2=O)cc1N(S(=O)(=O)C(F)(F)F)S(=O)(=O)C(F)(F)F [Compound 66],0,90,0,40,0,10,0,0,0,60,0,30,0,30,0,10,0,0,0,0,"Plant response rating, Foxtail, Giant [11]: 0; Foxtail, Giant plant response rating [11]: 30; Plant response rating, Pigweed [12]: 0; Pigweed plant response rating [12]: 50; Plant response rating, Wheat [13]: 0; Wheat plant response rating [13]: 40; Plant response rating, Corn (corn (Zea mays)): 0; Corn plant response rating (corn (Zea mays)): 10; Plant response rating, Blackgrass [14]: 0; Blackgrass plant response rating [14]: 0; Plant response rating, Galium [15]: 50; Galium plant response rating [15]: 70"
Cc1cc(C)c(N(S(=O)(=O)C(F)(F)F)S(=O)(=O)C(F)(F)F)cc1-c1cc(Br)nn(C)c1=O [Compound 67],70,100,0,70,0,60,80,90,90,100,50,80,0,40,10,40,0,10,0,60,"Plant response rating, Foxtail, Giant [11]: 10; Foxtail, Giant plant response rating [11]: 70; Plant response rating, Pigweed [12]: 30; Pigweed plant response rating [12]: 80; Plant response rating, Wheat [13]: 30; Wheat plant response rating [13]: 60; Plant response rating, Corn (corn (Zea mays)): 0; Corn plant response rating (corn (Zea mays)): 0; Plant response rating, Blackgrass [14]: 0; Blackgrass plant response rating [14]: 60; Plant response rating, Galium [15]: 50; Galium plant response rating [15]: 60"
